Assay type in all cases: in vivo, human
Test [1] has as its system vomeronasal receptors. The test can be described thus: Electrovomerogram dose-response (mass receptor potential of the vomeronasal receptors), local aerosol delivery with Multifunctional Miniprobe. Here is the method:
The effective amount of androsta-4,16-dien-3β-ol administered was determined in dose-response studies where the amplitude of the mass receptor potential of the vomeronasal receptors (electrogram of the vomeronasal organ or electrovomerogram) was recorded from volunteers diagnosed with generalized anxiety disorder (GAD), while locally delivering different concentrations of the steroid in aerosol form, using a Multifunctional Miniprobe® described in U.S. Pat. No. 5,303,703. This electrovomerogram allows precise measuring of the concentration dependent effect of locally delivered androsta-4,16-dien-3β-ol to vomeronasal receptors, and calculation of the half-maximal concentration, the Effective Concentration 50 (EC50).
Androsta-4,16-dien-3β-ol was delivered directly to the vomeronasal organ pit of anxious patients using the Multifunctional Miniprobe®, consisting of a concentric arrangement of Teflon® tubes having an inner non-polarized silver wire recording-electrode. […] The electrovomerogram recorded with the surface silver-wire electrode was electronically amplified and continuously monitored in a computer and a dose-response curve was obtained by plotting the peak amplitude of electrovomerograms produced by several different amounts of androsta-4,16-dien-3β-ol (ranging from 0 (control) to 1000 picograms). […]

Test [2] concerns patients diagnosed with generalized anxiety disorder. Nature of the test: Acute anxiety symptom scores (HAM-A, COVI, CGI) after delivery to the vomeronasal organ of patients with generalized anxiety disorder.
In test [3] the test system is patients diagnosed with generalized social phobia. The test can be described thus: Phase-2 randomized double-blind study: public speaking and social interaction challenges in social phobia patients, intranasal spray. From the text:
A Phase-2 Randomized, Double-blind, Crossover Study of the Use of Single Doses of [3β]-Androsta-4,16-dien-3-ol for Management of the Symptoms of Social phobia
The following describes a study of the effects of the vomeropherin [3β]-androsta-4,16-dien-3-ol on human female patients suffering from social phobia.
The study comprised 40 patients with clinical diagnosis of Social Phobia. Each patient was randomly assigned to one of the following double-blind treatment groups: 800 nanogram [3β]-Androsta-4,16-dien-3-ol or placebo delivered intranasally in spray form. Each patient participated in the Treatment Phase as follows.
First Visit: the patient visited the study center and the following activities were conducted during this visit: Pre-Challenge: After arrival at the study center, the patient completed self-reports of their usual anxiety symptoms. Public Speaking Challenge: The patient was administered a spray (50 microliters) of placebo to each nostril, and the procedures for the Public Speaking Challenge were then explained to the patient. The patient was given four minutes to prepare one of several topics for a four-minute speech, without notes, in front of an audience of several people who evaluated the speech and videotaped it. Immediately after completing the preparation period, the patient completed self-reports of their anticipatory anxiety and the Investigator then rated the patient's anticipatory anxiety. The patient gave their speech. Immediately after completing the speech, the patient completed self-reports of anxiety experienced during the speech. The Investigator then rated the anxiety experienced by the patient. Social Interaction Challenge: Approximately one hour after completion of the Public Speaking Challenge, the patient was administered another dose of placebo in each nostril, and the procedures for a Social Interaction Challenge appropriate for one of the patient's most-feared social interaction situations were then described to the patient. Then, the patient completed self-reports of their anticipatory anxiety and the Investigator rated the patient's anticipatory anxiety. Then, the patient participated in a four-minute mock social interaction while being observed by several raters and videotaped. Immediately after completing the social interaction, the patient completed self-reports of anxiety experienced during the interaction. Then, the Investigator rated the anxiety experienced by the patient. Those patients that during the first visit responded to placebo during the public speaking or the social interaction challenge were terminated from the study at that time. Patients non-responding to placebo during the first visit participated in a second visit where they were randomly dosed again with placebo, or with 800 nanograms androsta-4,16-dien-3β-ol per nostril (total dose=1,600 nanograms) delivered in spray form. Each patient was challenged and also the anxiety symptoms were scores using the same procedure performed during first visit.
The mean score obtained during the first visit (baseline scores) for each, anticipatory public speaking, performance public speaking, anticipatory social interaction and performance social interaction, was subtracted from the mean score (same parameter) obtained during the second visit. The result is a measure of symptom improvement.

[4] abbreviates: 1 nanogram to the vomeronasal organ, GAD patients n = 20.
Where [5] appears, read: 1600 nanogram intranasally, n = 40, Mean Baseline Score − Mean Score After Treatment.

Take `C[C@@]12C=CC[C@H]1[C@@H]1CCC3=C[C@@H](O)CC[C@]3(C)[C@H]1CC2` [androsta-4,16-dien-3β-ol]: the “EC50 (half-maximal concentration, electrovomerogram peak amplitude)” value in test [1] (delivered directly to vomeronasal organ pit, aerosol from propylene glycol, GAD volunteers) is on record as 0.5 nanograms. The KD in test [1] (set equal to EC50 (linear receptor occupancy-response, model of A. J. Clark)) was 0.5 ng. Besides, in test [2] (setting [4]), the “Mean acute symptom improvement, CGI (Mean Baseline Score − Mean Score after Treatment)” value was determined as 1.17; the “Mean acute symptom improvement, COVI (Mean Baseline Score − Mean Score after Treatment)” value came out at 2.8; the “Mean acute symptom improvement, HAM-A (Mean Baseline Score − Mean Score after Treatment)” value came out at 10.6. Moreover, the “Acute anxiety symptoms scores (HAM-A, COVI, CGI)” value in test [2] (concentrations above the EC50, 20 human female GAD patients, effect lasting 30 minutes after intranasal administration) is listed as “significantly reduced”. For the same compound, the “Anticipatory and Performance anxiety scores” value in test [3] (5 minutes after administration, Social Interaction and Public Speaking) is “notably and significantly decreased”. Besides, in test [3] (setting [5]), the “Mean Symptom Improvement, Anticipatory Public Speaking Anxiety” value is listed as 10.417; the “Mean Symptom Improvement, Anticipatory Social Interaction Anxiety” value came out at 12.166; the “Mean Symptom Improvement, Performance Public Speaking Anxiety” value is 26.294; the “Mean Symptom Improvement, Performance Social Interaction Anxiety” value came to 14.197. In test [3] (second visit versus first-visit baseline scores), the “Symptom improvement versus placebo” value was “much greater and significant symptom improvement than placebo”.

(Values after patent publication US8722652B2, “Acute treatment of social phobia” (Pherin Pharmaceuticals, Inc., priority 2005, dated 2014).)
